Test results reported in patent publication US7022699B2, “Cyclohexenyl phenyl diazepines vasopressin and oxytocin receptor modulators” (Wyeth, priority 2001, dated 2006).

What follows are compounds tested against T1, human oxytocin receptor (Homo sapiens, UniProt P30559) (assay: Oxytocin binding in CHO cell membranes expressing human oxytocin receptors ([3H]oxytocin)). Conditions: 100 nM, values without parentheses, read-out: OT % inhibition @ 100 nM.
T1 construct: host or cells: CHO cells, stably transfected (pcDNA3.1 vector); membranes
T1 sequence (P30559 1-389): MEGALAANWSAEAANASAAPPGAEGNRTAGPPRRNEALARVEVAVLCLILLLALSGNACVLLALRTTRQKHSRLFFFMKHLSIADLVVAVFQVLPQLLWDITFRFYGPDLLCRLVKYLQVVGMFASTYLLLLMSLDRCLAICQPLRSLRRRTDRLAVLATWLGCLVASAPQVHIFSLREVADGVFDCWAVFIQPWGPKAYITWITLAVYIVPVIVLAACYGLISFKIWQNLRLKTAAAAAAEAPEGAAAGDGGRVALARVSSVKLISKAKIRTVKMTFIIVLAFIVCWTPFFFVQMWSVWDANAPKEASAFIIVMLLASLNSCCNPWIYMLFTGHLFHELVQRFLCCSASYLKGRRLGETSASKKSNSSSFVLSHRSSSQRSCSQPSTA
From the text: Oxytocin Binding in Chinese Hamster Ovary Cell Membranes Expressing Human Oxytocin Receptors
Chinese Hamster Ovary (CHO) cells stably transfected with the human oxytocin (cf. Tanizawa et al., U.S. Pat. No. 5,466,584 (1995) to Rohto Pharmaceutical Co. Ltd., Osaka, Japan) were obtained from M. Thibonnier, Case Western Reserve University School of Medicine, Cleveland, Ohio. A. Passaging and Amplification of Cells: CHO cells transfected with the human oxytocin receptors obtained from M. Thibonnier (pcDNA3.1 vector) are allowed to grow to confluency (approx. >90%) in T-150 flasks under sterile conditions, in a cell culture medium of F-12 Nutrient Mixture (HAM) with L-glutamine (Gibco Cat. #11765-054) containing 15 mM HEPES (Gibco Cat. #15630-080), 1% antibiotic/antimycotic (add 5 mL 100×, Gibco Cat. #15240-062 per 500 mL F-12), 400 μg/mL of Geneticin (add 4 mL of 50 mg/mL per 500 mL F-12) and 10% Fetal Bovine Serum (Qualified, heat inactivated, Gibco Cat. #16140-063). The medium is removed by aspiration and the cells are washed with 10 mL of Hank's Balanced Salt solution (Gibco Cat. #14175-095). The salt solution is removed by aspiration and the cells trypsinized with 5 mL of trypsin-EDTA (0.05% trypsin, 0.53 mM EDTA-4Na, Gibco Cat. #25300-070) for 1 min. The trypsin is removed by aspiration and the cells dislodged by tapping. Cell Culture medium (e.g. 30 mL for 1:30 split) is immediately added and mixed well to inactivate trypsin. 1 mL of detached cells is added to new culture flasks containing fresh Cell Culture medium (e.g. into 25 mL per T-150 flask), and mixed gently. The cells are incubated at 37° C. in 5% CO2. The medium is changed at 3 to 4 days interval (or as appropriate). The cells grow to confluency (approx. >75%–95%) within 7–8 days. All steps are done under sterile conditions. B. Membrane Preparation: The cells are washed twice gently with Hank's Balanced Salt solution (e.g., use 10 mL per T-150 flask). The excess is removed and the cells bathed for 15–30 min. in an enzyme-free Cell Dissociation Buffer (e.g., use 8 mL Hank's Based, Gibco Cat. #13150-016 per T-150 flask) until cells are loosened. The contents are transferred to centrifuge tubes (50 mL size) kept in ice bath. All subsequent steps are done at 4° C. The tubes are centrifuged at 300×g for 15 min (1380 rpm on SORVAL, Model RT6000D, using rotor for 50 mL tubes). The supernatant is discarded and the cells suspended in homogenizing buffer (10 mM Tris-HCl containing 0.25 M sucrose and 1 mM EDTA, pH 7.4) ensuring that the volume of the buffer is about ten times the volume of the cell pellet. The cells are pooled into a centrifuge tube (50 mL) and homogenized with Polytron at setting 6 for 10 sec. The homogenate is transferred into a Potter-Elvjehm homogenizer and homogenized with 3 strokes. The homogenate is centrifuged at 1500×g for 10 min at 4° C. (3100 rpm using SORVAL, model RT6000D, using rotor for 50 mL tubes). The pellet. is discarded. The supernatant is centrifuged at 100,000×g for 60 min. at 4° C. (Beckman L8-80M ultracentrifuge; spin at 37,500 rpm with rotor type 70 Ti for 50 mL tubes; 38,000 rpm with type 80Ti for 15 mL tubes; or 35,800 rpm with rotor type 45Ti). The supernantant is discarded and the pellet suspended in 3 to 4 mL of Tris buffer (50 mM TRIS-HCl, pH 7.4). The protein content is estimated by the Bradford or Lowry method. The volume of the membrane suspension is adjusted with the membrane buffer (50 mM Tris-HCl containing 0.1% BSA and 0.1 mM PMSF) to give 3.0 mg/mL (or as appropriate) of protein. The membranes are aliquoted and stored at −70° C. C. Radioligand Binding Assay: In wells of a 96-well format microliter plate, is added 90, 110 or 130 μL (to make up a final volume of 200 μL) of assay buffer containing 50 mM of Tris-HCl (pH 7.4), […], 1 mg % aprotinin, 1 mg % leupeptin, 2 mg % 1,10-phenanthroline, 10 mg % trypsin inhibitor, and 0.1 mM PMSF. The inhibitors are added on the day of the experiment. […]

Row | SMILES | inhibition at 0.1 µM [%]
1 | Cc1cc(C(=O)N2Cc3cccn3Cc3ccccc32)ccc1C1=CCCCC1C (stereo not drawn) [Example 29, (10,11-Dihydro-5H-pyrrolo[2,1-c][1,4]benzodiazepin-10-yl)-[3-methyl-4-(6-methyl-cyclohex-1-en-1-yl)-phenyl]-methanone] | 81
2 | Cc1cc(C(=O)N2Cc3cccn3Cc3ccccc32)ccc1C1=CCCCC1(C)C [Example 30, (10,11-Dihydro-5H-pyrrolo[2,1-c][1,4]benzodiazepin-10-yl)-[4-(6,6-dimethyl-cyclohex-1-en-1-yl)-3-methyl-phenyl]-methanone] | 67
3 | CC1=C(c2ccc(C(=O)N3Cc4cccn4Cc4ccccc43)cc2C)C(C)CCC1 (stereo not drawn) [Example 33, (10,11-Dihydro-5H-pyrrolo[2,1-c][1,4]benzodiazepin-10-yl)-[4-(2,6-dimethyl-cyclohex-1-en-1-yl)-3-methyl-phenyl]-methanone] | 56
4 | Cc1cc(C(=O)N2Cc3cccn3Cc3ccccc32)ccc1C1=CCCCC1C(C)(C)C (stereo not drawn) [Example 34, (10,11-Dihydro-5H-pyrrolo[2,1-c][1,4]benzodiazepin-10-yl)-[4-(6-tert-butyl-cyclohex-1-en-1-yl)-3-methyl-phenyl]-methanone] | 20
5 | Cc1cc(C(=O)N2Cc3cccn3Cc3ccccc32)ccc1C1=CCC2CCC1C2 (stereo not drawn) [Example 35, (10,11-Dihydro-5H-pyrrolo[2,1-c][1,4]benzodiazepin-10-yl)-(4-bicyclo[3.2.1]oct-2-en-2-yl-3-methyl-phenyl)-methanone] | 48
6 | Cc1cc(C(=O)N2Cc3cccn3Cc3ccccc32)ccc1C1=CCC2CC1C2(C)C (stereo not drawn) [Example 36, (10,11-Dihydro-5H-pyrrolo[2,1-c][1,4]benzodiazepin-10-yl)-[4-(6,6-dimethyl-bicyclo[3.1.1]hept-2-en-2-yl)-3-methyl-phenyl]-methanone] | 14
7 | Cc1cc(C(=O)N2Cc3cccn3Cc3ccccc32)ccc1C1=CC(C)(C)CC(C)(C)C1 [Example 37, (10,11-Dihydro-5H-pyrrolo[2,1-c][1,4]benzodiazepin-10-yl)-[3-methyl-4-(3,3,5,5-tetramethyl-cyclohex-1-en-1-yl)-phenyl]-methanone] | 30
8 | COc1cccc(C2=C(c3ccc(C(=O)N4Cc5cccn5Cc5ccccc54)cc3C)CCCC2)c1 [Example 38, (10,11-Dihydro-5H-pyrrolo[2,1-c][1,4]benzodiazepin-10-yl)-{4-[2-(3-methoxy-phenyl)-cyclohex-1-en-1-yl]-3-methyl-phenyl}-methanone] | 16
9 | Cc1cc(C(=O)N2Cc3cccn3Cc3ccccc32)ccc1C1=CC(=O)CCC1 [Example 39, 3-[4-(10,11-Dihydro-5H-pyrrolo[2,1-c][1,4]benzodiazepine-10-carbonyl)-2-methyl-phenyl]-cyclohex-2-en-1-one] | 76

The remaining lines, values ahead:

Row | inhibition at 0.1 µM [%] | SMILES
10 | 32 | CC1(C)C2CC=C(c3ccc(C(=O)N4Cc5cccn5Cc5ccccc54)cc3)C1C2 (stereo not drawn) [Example 22, (10,11-Dihydro-5H-pyrrolo[2,1-c][1,4]benzodiazepin-10-yl)-[4-(6,6-dimethyl-bicyclo[3.1.1]hept-2-en-2-yl)-phenyl]-methanone]
11 | 7 | CC1(C)C=C(c2ccc(C(=O)N3Cc4cccn4Cc4ccccc43)cc2)CC(C)(C)C1 [Example 23, (10,11-Dihydro-5H-pyrrolo[2,1-c][1,4]benzodiazepin-10-yl)-[4-(3,3,5,5-tetramethyl-cyclohex-1-en-1-yl)-phenyl]-methanone]
12 | 70 | O=C1C=C(c2ccc(C(=O)N3Cc4cccn4Cc4ccccc43)cc2)CCC1 [Example 24, 3-[4-(10,11-Dihydro-5H-pyrrolo[2,1-c][1,4]benzodiazepine-10-carbonyl)-phenyl]-cyclohex-2-en-1-one]
13 | 39 | O=C(c1ccc(C2=CC(O)CCC2)cc1)N1Cc2cccn2Cc2ccccc21 (stereo not drawn) [Example 25, (10,11-Dihydro-5H-pyrrolo[2,1-c][1,4]benzodiazepin-10-yl)-[4-(3-hydroxy-cyclohex-1-en-1-yl)-phenyl]-methanone]
14 | 80 | CC1=C(c2ccc(C(=O)N3Cc4cccn4Cc4ccccc43)cc2)CCCC1=O [Example 26, 3-[4-(10,11-Dihydro-5H-pyrrolo[2,1-c][1,4]benzodiazepine-10-carbonyl)-phenyl]-2-methyl-cyclohex-2-en-1-one]
15 | 96 | CC1=C(c2ccc(C(=O)N3Cc4cccn4Cc4ccccc43)cc2)CCCC1O (stereo not drawn) [Example 27, (10,11-Dihydro-5H-pyrrolo[2,1-c][1,4]benzodiazepin-10-yl)-[4-(3-hydroxy-2-methyl-cyclohex-1-en-1-yl)-phenyl]-methanone]
16 | 63 | Cc1cc(C(=O)N2Cc3cccn3Cc3ccccc32)ccc1C1=CC(O)CCC1 (stereo not drawn) [Example 40, (10,11-Dihydro-5H-pyrrolo[2,1-c][1,4]benzodiazepin-10-yl)-[4-(3-hydroxy-cyclohex-1-en-1-yl)-3-methyl-phenyl]-methanone]
17 | 96 | CO[C@@H]1CCCC(c2ccc(C(=O)N3Cc4cccn4Cc4ccccc43)cc2C)=C1C [Example 44, 10-{4-[(3R)-3-Methoxy-2-methylcyclohex-1-en-1-yl]-3-methylbenzoyl}-10,11-dihydro-5H-pyrrolo[2,1-c][1,4]benzodiazepine]
18 | 67 | CC1=C(c2ccc(C(=O)N3Cc4cccn4Cc4ccccc43)cc2C)CCCC1N (stereo not drawn) [Example 45, [4-(3-Amino-2-methyl-cyclohex-1-en-1-yl)-3-methyl-phenyl]-(10,11-dihydro-5H-pyrrolo[2,1-c][1,4]benzodiazepin-10-yl)-methanone]
